Experiment [1] deals with T1, CRAC channel (Homo sapiens, UniProt Q96D31).
T1 construct: host or cells: HEK293
As to the kind of experiment: HEK Calcium Influx Assay (FLIPR). The format is cell-based. The settings on record: 10 μM; endogenous SOC in HEK293 cells, thapsigargin store depletion, Ca2+ signal 9.5-10 min post-administration; read-out: % inhib.[@ 10 μM] FLIPR. The procedure:
The effect of compounds of the invention on intracellular [Ca^2+] was tested in the HEK293 cell line (ECACC).
HEK293 cells were cultured in DMEM/F12/Glutamax (Gibco) containing 10% FCS (Gibco), and maintained at 37° C., 5% CO2. Cell were split twice a week [3*10^6 (Mon-Thu) and 1*10^6 (Thu-Mon) cells/50 ml medium in T-175 ZK culture flasks, respectively]. Twenty four hours pre-experiment, cells were seeded on 96 well plates (Poly-D-Lysine 96well Black/Clear Plate, BD Biocoat REF 356640) at a density of 40,000 cells/well in DMEM/F12 (Gibco) containing 10% FCS (Gibco), and maintained at 37° C., 5% CO2.
Prior to store-depletion, cell culture medium was removed and cells were loaded with the a Calcium-sensitive fluorescent dye comprised within the Calcium-4-assay kit (Molecular Devices) in nominally Ca^2+-free HBS buffer (140 mM NaCl, 4 mM KCl, 0.2 mM MgCl2, 11 mM D-glucose, and 10 mM HEPES, pH 7.4) according to manufacturer's instruction for 60 min at 37° C., 5% CO2.
Passive depletion of intracellular Ca^2+-stores was then triggered by employing the SERCA inhibitor thapsigargin (2 μM final) for 10 min in the dark (RT). To prevent immediate Ca^2+-entry via the activated Store-operated channels (SOCs), cells were maintained in Ca^2+-free HBS buffer comprising 100 μM EGTA during store-depletion.
Intracellular changes in [Ca^2+] were subsequently monitored with the FLIPR device (Molecular Devices). In brief, baseline imaging post-store depletion was allowed for 1 min before adjusting the extracellular buffer to 3 mM CaCl2. Increases in intracellular [Ca^2+] due to pre-activated SOC channels were monitored for 15 min until intracellular Ca^2+ levels had declined into a steady-state. Finally, compounds were administered and Ca^2+ signals were recorded for additional 10 min.
Inhibition of endogenous SOC in HEK293 cells was quantified employing the average Ca^2+ signal measured from 9.5-10 min post-administration. Zero percent inhibition (MAX) was defined as the Ca^2+ signal recorded from wells to which DMSO-only had been added instead of compound. Hundred percent inhibition (MIN) was defined as the signal obtained from wells in which cells haven't been treated with TG prior to Ca^2+ addition and to which DMSO-only had been added instead of compound. For routine IC50 determinations of compounds, 8 concentrations of a serial dilution (1:3.16) were tested, starting off from 10 μM. Reliable IC50's could consequently be determined only, if they were at least sub 2.5-3 μM.

For experiment [2], the system named is Interleukin-2 (IL-2) production/release. The experiment is described as follows: Jurkat IL-2 Production Assay. The format is cell-based. The settings on record: Homo sapiens; Jurkat T cells clone E6-1, 15 μg/ml PHA for 22 hours, IL-2 in supernatant. The procedure: Jurkat IL-2 Production Assay
The effect of compounds of the invention on Interleukin-2 (IL-2) production/release was tested in the Jurkat T cell line (ECACC) clone E6-1.
Jurkat T cells were cultured in DMEM/F12/Glutamax (Gibco) containing 10% FCS (Gibco), and maintained at 37° C., 5% CO2. Cell were split twice a week [5*10^6 (Mon-Thu) and 1*10^7 (Thu-Mon) cells/50 ml medium in T-175 ZK culture flasks, respectively].
Prior to experiment, cells were seeded on 96 well plates (Cellstar 96 Well; Cat No. 655180, Greiner bio-one) at a density of 5*10^5 cells/well in DMEM/F12/Glutamax (Gibco) containing 10% FCS (Gibco), and incubated for 60 min at 37° C., 5% CO2. Subsequently, compounds were added and cells were allowed to incubate for 30 min at 37° C., 5% CO2. Cells were then stimulated with 15 μg/ml Phytohemagglutinin (PHA; Sigma) for 22 hours at 37° C., 5% CO2.
Before sampling of the supernatants, cells were spun down (200*g/5 min/RT). The amount of IL-2 released into the supernatant was quantified with the human IL-2 AlphaLisa kit (Perkin Elmer) according to manufacturer's instructions. Luminescence proximity measurements were carried out in the Synergy H4 reader (BioTek) employing the fluorescence setting of the reader (ex: 680/30 nm; em: 620/40 nm).
Inhibition of IL-Production/Release in/from Jurkat T Cells was Quantified as Follows:
Zero percent inhibition (MAX) was defined as the [IL-2] determined in supernatants derived from cells to which PHA & DMSO-only had been added instead of compound. Hundred percent inhibition (MIN) was defined as the [IL-2] determined in supernatants derived from cells that had been pre-treated with 1 μM CyclosporineA (Sigma) before the addition of 15 μg/ml PHA.
For routine IC50 determinations of compounds, 8 concentrations of a serial dilution (1:3.16) were tested, starting off from 10 μM.

T1 sequence (Q96D31 whole entry): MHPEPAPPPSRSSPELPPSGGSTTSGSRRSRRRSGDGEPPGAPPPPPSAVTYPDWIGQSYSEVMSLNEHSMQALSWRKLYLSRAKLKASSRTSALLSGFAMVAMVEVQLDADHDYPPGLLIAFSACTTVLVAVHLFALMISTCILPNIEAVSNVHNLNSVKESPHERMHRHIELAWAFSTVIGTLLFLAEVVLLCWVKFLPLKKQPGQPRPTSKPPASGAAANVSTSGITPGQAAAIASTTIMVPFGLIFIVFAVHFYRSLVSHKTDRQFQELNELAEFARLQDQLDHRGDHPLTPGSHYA

`COc1ccccc1-c1cc(C(=O)Nc2c(F)cccc2F)nn1C` [Example 1, N-(2,6-Difluoro-phenyl)-5-(2-methoxyphenyl)-1-methyl-1H-pyrazole-3-carboxylic acid amide]: in experiment [1], the inhibition at 10 µM was more than 70%. The IC50 in experiment [2] was 1 to 5 µM.
On to `COc1ccc(OC)c(-c2cc(C(=O)Nc3ccc(F)cc3F)nn2C)c1` [Example 2, N-(2,4-Difluoro-phenyl)-5-(2,5-dimethoxyphenyl)-1-methyl-1H-pyrazole-3-carboxylic acid amide], for which, in experiment [1], the inhibition at 10 µM was more than 70%. In experiment [2], the IC50 was 1 to 5 µM.
As to `CCOc1ccc(OC)cc1-c1cc(C(=O)Nc2ccncc2F)nn1C` [Example 3, 5-(2-Ethoxy-5-methoxy-phenyl)-N-(3-fluoro-pyridin-4-yl)-1-methyl-1H-pyrazole-3-carboxylic acid amide], the inhibition at 10 µM in experiment [1] is less than 50%. Moreover, the IC50 in experiment [2] lay in the range of 1 to 5 µM.
Turning to `CCOc1ccc(OC)cc1-c1cc(C(=O)Nc2c(F)cccc2F)nn1C` [Example 4, N-(2,6-Difluoro-phenyl)-5-(2-ethoxy-5-methoxy-phenyl)-1-methyl-1H-pyrazole-3-carboxylic acid amide], the inhibition at 10 µM in experiment [1] is more than 70%. Moreover, the concentration for half-maximal inhibition (IC50) in experiment [2] is 0.5 to 1 µM.
For `Cn1nc(C(=O)Nc2c(F)cccc2F)cc1-c1ccccc1C(F)(F)F` [Example 7, N-(2,6-Difluoro-phenyl)-1-methyl-5-[2-(trifluoromethyl)-phenyl]-1H-pyrazole-3-carboxylic acid amide], in experiment [1], the inhibition at 10 µM was more than 70%. In addition, the IC50 in experiment [2] was 0.5 to 1 µM.
As for `COc1ccc(OC(F)(F)F)c(-c2cc(C(=O)Nc3c(F)cccc3F)nn2C)c1` [Example 8, N-(2,6-Difluoro-phenyl)-5-[5-methoxy-2-(trifluoromethyloxy)-phenyl]-1-methyl-1H-pyrazole-3-carboxylic acid amide], the inhibition at 10 µM in experiment [1] is more than 70%. The IC50 in experiment [2] was less than 0.5 µM.
Turning to `COc1ccc(OC(F)(F)F)c(-c2cc(C(=O)Nc3ccncc3F)nn2C)c1` [Example 9, N-(3-Fluoro-pyridin-4-yl)-5-[5-methoxy-2-(trifluoromethyloxy)-phenyl]-1-methyl-1H-pyrazole-3-carboxylic acid amide], the inhibition at 10 µM in experiment [1] was more than 70%. For the same compound, the IC50 in experiment [2] was in the range of 1 to 5 µM.
As for `COc1ccc(F)cc1-c1cc(C(=O)Nc2c(F)cccc2F)nn1C` [Example 10, N-(2,6-Difluoro-phenyl)-5-(5-fluoro-2-methoxy-phenyl)-1-methyl-1H-pyrazole-3-carboxylic acid amide], in experiment [1], the inhibition at 10 µM was more than 70%. Besides, the IC50 in experiment [2] is 0.5 to 1 µM.
In the same order, the values of `Cn1nc(C(=O)Nc2c(F)cccc2F)cc1-c1ccc(OC(F)(F)F)cc1Cl` [Example 12, 5-[2-Chloro-4-(trifluoromethyloxy)-phenyl]-N-(2,6-difluoro-phenyl)-1-methyl-1H-pyrazole-3-carboxylic acid amide] are more than 70% and 0.5 to 1 µM.
In the same order, the values of `COc1ccc(OC)c(-c2cc(C(=O)Nc3ccncc3C#N)nn2C)c1` [Example 15, N-(3-Cyano-pyridin-4-yl)-5-(2,5-dimethoxyphenyl)-1-methyl-1H-pyrazole-3-carboxylic acid amide] are 50 to 70% and 1 to 5 µM.
Turning to `COc1ccc(OC)c(-c2cc(C(=O)Nc3cnccc3C)nn2C)c1` [Example 16, 5-(2,5-Dimethoxyphenyl)-1-methyl-N-(4-methyl-pyridin-3-yl)-1H-pyrazole-3-carboxylic acid amide], the inhibition at 10 µM in experiment [1] was more than 70%. In addition, the half-maximal inhibitory concentration (IC50) in experiment [2] lay in the range of 1 to 5 µM.
In the same order, the values of `COc1ccc(OC)c(-c2cc(C(=O)Nc3cnc(C)cc3C)nn2C)c1` [Example 17, 5-(2,5-Dimethoxyphenyl)-N-(4,6-dimethyl-pyridin-3-yl)-1-methyl-1H-pyrazole-3-carboxylic acid amide] are 50 to 70% and 1 to 5 µM.
`COc1ccc(OC)c(-c2cc(C(=O)Nc3ncncc3C)nn2C)c1` [Example 18, 5-(2,5-Dimethoxyphenyl)-1-methyl-N-(5-methyl-pyrimidin-4-yl)-1H-pyrazole-3-carboxylic acid amide]: the inhibition at 10 µM in experiment [1] was less than 50%. Moreover, in experiment [2], the IC50 lay within 1 to 5 µM.
Consider `COc1ccc(OC)c(-c2cc(C(=O)Nc3ccncc3C)nn2C)c1` [Example 20, 5-(2,5-Dimethoxyphenyl)-1-methyl-N-(3-methyl-pyridin-4-yl)-1H-pyrazole-3-carboxylic acid amide], for which the inhibition at 10 µM in experiment [1] is more than 70%. Further, the concentration for half-maximal inhibition (IC50) in experiment [2] lay in the range of 0.5 to 1 µM.
Taken in the same sequence, the figures for `COc1ccc(OC)c(-c2cc(C(=O)Nc3c(F)cccc3F)nn2C)c1` [Example 21, N-(2,6-Difluoro-phenyl)-5-(2,5-dimethoxyphenyl)-1-methyl-1H-pyrazole-3-carboxylic acid amide] were more than 70% and less than 0.5 µM.
`COc1ccc(OC)c(-c2c(C)c(C(=O)Nc3ccncc3F)nn2C)c1` [Example 25, 5-(2,5-Dimethoxyphenyl)-N-(3-fluoro-pyridin-4-yl)-1,4-dimethyl-1H-pyrazole-3-carboxylic acid amide]: the inhibition at 10 µM in experiment [1] is more than 70%. The half-inhibitory concentration (IC50) in experiment [2] was in the range of 0.5 to 1 µM.
`Cc1ccc(Cl)cc1-c1cc(C(=O)Nc2c(F)cccc2F)nn1C` [Example 26, 5-(5-Chloro-2-methyl-phenyl)-N-(2,6-difluoro-phenyl)-1-methyl-1H-pyrazole-3-carboxylic acid amide]: the inhibition at 10 µM in experiment [1] is more than 70%. The IC50 in experiment [2] was 1 to 5 µM.
With `COc1ccc(OC)c(-c2cc(C(=O)Nc3ccccc3C)nn2C)c1` [Example 27, 5-(2,5-Dimethoxyphenyl)-1-methyl-N-(o-tolyl)-1H-pyrazole-3-carboxylic acid amide], in experiment [1], the inhibition at 10 µM was more than 70%. Further, in experiment [2], the IC50 lay within 1 to 5 µM.
For `Cc1ccc(C(F)(F)F)cc1-c1cc(C(=O)Nc2c(F)cccc2F)nn1C` [Example 30, N-(2,6-Difluoro-phenyl)-1-methyl-5-[2-methyl-5-(trifluoromethyl)-phenyl]-1H-pyrazole-3-carboxylic acid amide], in experiment [1], the inhibition at 10 µM was more than 70%. The IC50 in experiment [2] is 0.5 to 1 µM.
Turning to `Cc1cncc(F)c1NC(=O)c1cc(-c2c(F)cccc2C(F)(F)F)n(C)n1` [Example 63, N-(3-Fluoro-5-methyl-pyridin-4-yl)-5-[2-fluoro-6-(trifluoromethyl)-phenyl]-1-methyl-1H-pyrazole-3-carboxylic acid amide], the inhibition at 10 µM in experiment [1] was more than 70%.
Same read-out and setting: in the case of `Cc1ccncc1-c1cc(C(=O)Nc2ccccc2C(F)(F)F)nn1C` [Example 64, 1-Methyl-5-(4-methyl-pyridin-3-yl)-N-[2-(trifluoromethyl)-phenyl]-1H-pyrazole-3-carboxylic acid amide] it was more than 70%.
The same measure, in the same setting: in the case of `Cc1ccncc1-c1cc(C(=O)Nc2c(C)cncc2F)nn1C` [Example 65, N-(3-Fluoro-5-methyl-pyridin-4-yl)-1-methyl-5-(4-methyl-pyridin-3-yl)-1H-pyrazole-3-carboxylic acid amide] it was more than 70%.

The record behind these values is patent publication US9078899B2, “Pyrazolyl-based carboxamides II” (Grünenthal GmbH, priority 2013, dated 2015).
